These results are taken from patent publication US10689378B2, “Triazolopyridine compounds and uses thereof” (Novartis AG, priority 2016, dated 2020).

One assay has as its target T1, EED (1-441)-His protein (Homo sapiens, UniProt O75530).
T1 construct: 30 nM EED (1-441)-His protein
The experiment in a line: EED-H3K27Me3 peptide competition binding assay by AlphaScreen. The note with it: EED-H3K27Me3 peptide competition, AlphaScreen; read-out: (a) IC50 EED Alphascreen binding Qualified. The procedure, abridged:
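Serially diluted compound (12 points, 3-fold) incubated 20 min with 30 nM EED(1-441)-His and 15 nM biotin-H3K27Me3(19-33) peptide in 25 mM HEPES pH 8, 0.02% Tween-20, 0.5% BSA. Ni-chelate acceptor/streptavidin donor beads (10 μg/mL each) added, 1 h rt dark; 615 nm emission normalized to controls, dose-response fit for IC50.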

Assay [1] addresses wild type PRC2 (wtPRC2) complex (Homo sapiens, UniProt O75530). Put plainly: EED LC-MS assay (SAH production by PRC2). The note with it: PRC2 LC-MS assay; read-out: (b) IC50 EED LC-MS Qualified. It counts as biochemical. The procedure, abridged:
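Pentameric PRC2 (EZH2, SUZ12, EED, Rbap48, AEBP), 12 nM final, preincubated 20 min with compound and SAM, then 1.5 μM biotinylated H3K27me0 peptide, 1 μM SAM, pH 8.0, 120 min at rt. SAH quantified by LC-MS/MS with d4-SAH; control-normalized activity fitted for IC50.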

Assay [2] relates to H3K27 methylation in G401 cell. The experiment in a line: ELISA (H3K27 methylation) assay in G401 cells. Conditions: Homo sapiens, G-401, H3K27 methylation ELISA, read-out: (c) IC50 ELISA Qualified. It is filed as cell-based, human. The procedure, abridged: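 G401 cells treated 48 h with 3-fold dilutions (8 or 12 points, top 20 μM). Acid-extracted histones probed by ELISA for H3K27me3 or H3K27me2 with ECL readout, normalized to total H3. Percent inhibition versus DMSO fitted to dose-response curve for IC50.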

wild type PRC2 (wtPRC2) complex, sequence (O75530 whole entry): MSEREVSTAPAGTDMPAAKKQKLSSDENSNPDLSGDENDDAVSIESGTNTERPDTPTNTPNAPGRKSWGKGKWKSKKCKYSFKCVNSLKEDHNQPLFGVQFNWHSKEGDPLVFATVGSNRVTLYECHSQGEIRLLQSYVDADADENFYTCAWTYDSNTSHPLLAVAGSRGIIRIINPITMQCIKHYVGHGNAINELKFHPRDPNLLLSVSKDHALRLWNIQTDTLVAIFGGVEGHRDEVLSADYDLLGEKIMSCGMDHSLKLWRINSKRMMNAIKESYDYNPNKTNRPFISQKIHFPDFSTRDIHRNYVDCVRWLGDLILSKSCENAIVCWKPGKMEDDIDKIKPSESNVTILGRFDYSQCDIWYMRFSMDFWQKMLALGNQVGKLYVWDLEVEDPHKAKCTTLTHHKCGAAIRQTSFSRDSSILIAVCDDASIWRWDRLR
wild type PRC2 (wtPRC2) complex, sequence (Q15910 whole entry partner): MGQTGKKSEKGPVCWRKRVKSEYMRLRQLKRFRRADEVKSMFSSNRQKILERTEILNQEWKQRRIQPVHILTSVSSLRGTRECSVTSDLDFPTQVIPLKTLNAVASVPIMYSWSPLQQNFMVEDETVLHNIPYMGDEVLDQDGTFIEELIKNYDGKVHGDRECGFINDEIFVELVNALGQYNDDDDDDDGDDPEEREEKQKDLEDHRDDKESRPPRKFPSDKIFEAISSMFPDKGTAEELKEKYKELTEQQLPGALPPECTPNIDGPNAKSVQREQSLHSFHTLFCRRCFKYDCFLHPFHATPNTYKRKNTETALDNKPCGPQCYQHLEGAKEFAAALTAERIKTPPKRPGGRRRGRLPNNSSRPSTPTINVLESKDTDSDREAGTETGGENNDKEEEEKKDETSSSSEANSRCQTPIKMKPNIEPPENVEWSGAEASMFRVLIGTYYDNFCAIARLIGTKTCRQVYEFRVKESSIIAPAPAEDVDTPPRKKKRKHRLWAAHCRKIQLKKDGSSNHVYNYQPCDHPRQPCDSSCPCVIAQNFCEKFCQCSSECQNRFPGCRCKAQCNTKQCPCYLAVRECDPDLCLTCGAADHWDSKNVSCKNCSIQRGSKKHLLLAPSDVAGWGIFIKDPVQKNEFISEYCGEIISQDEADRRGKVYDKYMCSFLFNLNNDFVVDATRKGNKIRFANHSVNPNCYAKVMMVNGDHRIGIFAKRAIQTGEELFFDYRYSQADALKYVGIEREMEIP
wild type PRC2 (wtPRC2) complex, sequence (Q15022 whole entry partner): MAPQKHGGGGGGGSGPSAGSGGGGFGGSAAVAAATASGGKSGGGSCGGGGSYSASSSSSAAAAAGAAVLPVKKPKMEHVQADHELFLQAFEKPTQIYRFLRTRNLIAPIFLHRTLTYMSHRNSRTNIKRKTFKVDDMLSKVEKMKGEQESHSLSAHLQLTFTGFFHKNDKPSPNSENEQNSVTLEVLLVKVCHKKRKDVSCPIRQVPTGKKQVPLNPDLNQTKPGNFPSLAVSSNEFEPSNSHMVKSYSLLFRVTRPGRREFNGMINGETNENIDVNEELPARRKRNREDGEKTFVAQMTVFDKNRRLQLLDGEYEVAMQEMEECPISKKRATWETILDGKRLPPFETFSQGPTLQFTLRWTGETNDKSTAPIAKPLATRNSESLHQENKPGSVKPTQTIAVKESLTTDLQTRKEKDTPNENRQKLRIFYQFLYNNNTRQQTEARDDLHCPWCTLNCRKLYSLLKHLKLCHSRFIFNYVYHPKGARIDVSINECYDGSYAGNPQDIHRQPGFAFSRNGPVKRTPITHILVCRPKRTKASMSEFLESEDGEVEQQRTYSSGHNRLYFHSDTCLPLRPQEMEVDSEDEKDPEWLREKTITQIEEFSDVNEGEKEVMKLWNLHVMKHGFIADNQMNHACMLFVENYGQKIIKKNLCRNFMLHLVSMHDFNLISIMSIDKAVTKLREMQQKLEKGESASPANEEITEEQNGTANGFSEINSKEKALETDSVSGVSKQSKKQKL
wild type PRC2 (wtPRC2) complex, sequence (Q09028 whole entry partner): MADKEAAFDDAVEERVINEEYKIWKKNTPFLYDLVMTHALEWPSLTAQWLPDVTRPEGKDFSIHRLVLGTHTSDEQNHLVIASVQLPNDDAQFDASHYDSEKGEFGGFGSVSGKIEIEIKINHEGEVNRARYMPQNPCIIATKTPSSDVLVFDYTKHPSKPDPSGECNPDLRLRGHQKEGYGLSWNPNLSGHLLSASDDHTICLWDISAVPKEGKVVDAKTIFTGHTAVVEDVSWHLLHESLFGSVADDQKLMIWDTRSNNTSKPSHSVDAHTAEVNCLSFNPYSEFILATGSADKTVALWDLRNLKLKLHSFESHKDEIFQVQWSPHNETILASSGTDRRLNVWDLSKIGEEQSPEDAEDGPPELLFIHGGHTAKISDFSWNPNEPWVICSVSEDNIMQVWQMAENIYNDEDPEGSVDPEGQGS
wild type PRC2 (wtPRC2) complex, sequence (Q6ZN18 whole entry partner): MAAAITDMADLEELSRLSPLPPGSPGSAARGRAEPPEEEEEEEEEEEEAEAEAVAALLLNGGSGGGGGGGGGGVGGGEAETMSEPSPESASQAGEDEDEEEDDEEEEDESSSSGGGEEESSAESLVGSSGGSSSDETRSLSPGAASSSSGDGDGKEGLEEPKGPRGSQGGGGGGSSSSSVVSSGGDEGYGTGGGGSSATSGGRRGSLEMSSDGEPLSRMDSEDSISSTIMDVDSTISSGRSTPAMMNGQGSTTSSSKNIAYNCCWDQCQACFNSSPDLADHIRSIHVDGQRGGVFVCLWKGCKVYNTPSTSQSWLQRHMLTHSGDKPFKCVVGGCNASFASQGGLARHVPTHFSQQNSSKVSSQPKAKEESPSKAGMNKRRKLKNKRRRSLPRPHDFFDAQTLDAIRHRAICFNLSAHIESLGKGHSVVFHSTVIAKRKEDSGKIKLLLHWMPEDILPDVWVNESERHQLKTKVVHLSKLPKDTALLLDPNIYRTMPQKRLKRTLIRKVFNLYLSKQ
T1 sequence (O75530 whole entry): as the sequence (O75530 whole entry) above

`COc1cccc(F)c1CNc1ccc(-c2cccnc2Cl)c2nncn12` [Example 213, 8-(2-chloropyridin-3-yl)-N-(2-fluoro-6-methoxybenzyl)-[1,2,4]triazolo[4,3-a]pyridin-5-amine]: the IC50 at EED (1-441)-His protein was found to be 20.5 nM; in assay [1], 20 nM; in assay [2], 16.5 nM.

As to `CO/N=C(\C)c1ccc(-c2ccc(NCc3c(F)cccc3OC)n3cnnc23)cn1` [Example 214, (E)-1-(5-(5-((2-fluoro-6-methoxybenzyl)amino)-[1,2,4]triazolo[4,3-a]pyridin-8-yl)pyridin-2-yl)ethanone O-methyl oxime], the IC50 was 55.2 nM at EED (1-441)-His protein, 965 nM in assay [1] and 62.7 nM in assay [2].

As for `COc1cccc(F)c1CNc1ccc(-c2ccc(N3CCCC3=O)nc2)c2nncn12` [Example 215, 1-(5-(5-((2-fluoro-6-methoxybenzyl)amino)-[1,2,4]triazolo[4,3-a]pyridin-8-yl)pyridin-2-yl)pyrrolidin-2-one], the results for the concentration for half-maximal inhibition (IC50) (at EED (1-441)-His protein; in assay [1]; in assay [2]) were 20 nM, 150 nM and 55 nM, respectively.

As for `COc1cccc(F)c1CNc1ccc(-c2cncc(C(C)(C)O)c2)c2nncn12` [Example 216, 2-(5-(5-((2-fluoro-6-methoxybenzyl)amino)-[1,2,4]triazolo[4,3-a]pyridin-8-yl)pyridin-3-yl)propan-2-ol], the figures for the concentration for half-maximal inhibition (IC50) (on EED (1-441)-His protein; in assay [1]; in assay [2]) were 33 nM, 449 nM and 25.5 nM, respectively.

Regarding `CNC(=O)Cc1cncc(-c2ccc(NCc3c(F)cccc3OC)n3cnnc23)c1` [Example 217, 2-(5-(5-((2-fluoro-6-methoxybenzyl)amino)-[1,2,4]triazolo[4,3-a]pyridin-8-yl)pyridin-3-yl)-N-methyl acetamide], the values for the concentration for half-maximal inhibition (IC50) (at EED (1-441)-His protein; in assay [1]; in assay [2]) were 34.3 nM, 946 nM and 25 nM, respectively.

As for `COc1cccc(F)c1CNc1ccc(-c2c(C)ccnc2F)c2nncn12` [Example 218, 8-(2-fluoro-4-methylpyridin-3-yl)-N-(2-fluoro-6-methoxybenzyl)-[1,2,4]triazolo[4,3-a] pyridin-5-amine], the IC50 at EED (1-441)-His protein amounted to 38.3 nM; in assay [1], 79.5 nM; in assay [2], 42 nM.

Consider `COc1cccc(F)c1CNc1ccc(-c2cncc(F)c2C)c2nncn12` [Example 219, 8-(5-fluoro-4-methylpyridin-3-yl)-N-(2-fluoro-6-methoxybenzyl)-[1,2,4]triazolo[4,3-a] pyridin-5-amine], for which the half-maximal inhibitory concentration (IC50) came out at 29.1 nM at EED (1-441)-His protein, 213 nM in assay [1] and 26.7 nM in assay [2].

With `COc1cc(F)cc(F)c1CNc1ccc(-c2cccnc2)c2nncn12` [Example 220, N-(2,4-difluoro-6-methoxybenzyl)-8-(pyridin-3-yl)-[1,2,4]triazolo[4,3-a]pyridin-5-amine], the IC50 on EED (1-441)-His protein came out at 46 nM; in assay [1], 142 nM; in assay [2], 55.6 nM.

For the compound `COc1cccc(F)c1CNc1ccc(-c2cncnc2C)c2nncn12` [Example 221, N-(2-fluoro-6-methoxybenzyl)-8-(4-methylpyrimidin-5-yl)-[1,2,4] triazolo[4,3-a]pyridin-5-amine], the half-maximal inhibitory concentration (IC50) was 21.6 nM at EED (1-441)-His protein, 14.9 nM in assay [1] and 12.1 nM in assay [2].

For `COc1cccc(F)c1CNc1ccc(-c2ccc(F)nc2C)c2nncn12` [Example 222, 8-(6-fluoro-2-methylpyridin-3-yl)-N-(2-fluoro-6-methoxybenzyl)-[1,2,4]triazolo[4,3-a] pyridin-5-amine], the results for the IC50 (at EED (1-441)-His protein; in assay [1]; in assay [2]) were 9.9 nM, 122 nM and 9.9 nM, respectively.

Take `COc1cccc(F)c1CNc1ccc(-c2cc(F)ccc2C)c2nncn12` [Example 223, 8-(5-fluoro-2-methylphenyl)-N-(2-fluoro-6-methoxybenzyl)-[1,2,4]triazolo[4,3-a] pyridin-5-amine]: the figures for the IC50 (on EED (1-441)-His protein; in assay [1]; in assay [2]) were 23.3 nM, 230 nM and 66.7 nM, respectively.

Take `COc1cccc(F)c1CNc1ccc(-c2cnn(C3CCNCC3)c2)c2nncn12` [Example 225, N-(2-fluoro-6-methoxybenzyl)-8-(1-(piperidin-4-yl)-1H-pyrazol-4-yl)-[1,2,4]triazolo[4,3-a]pyridin-5-amine]: the figures for the concentration for half-maximal inhibition (IC50) (on EED (1-441)-His protein; in assay [1]; in assay [2]) were 26.9 nM, 147 nM and 15.9 nM, respectively.

Take `COc1cccc(F)c1CNc1ccc(-c2cnn(CCN3CCOCC3)c2)c2nncn12` [Example 226, N-(2-fluoro-6-methoxybenzyl)-8-(1-(2-morpholinoethyl)-1H-pyrazol-4-yl)-[1,2,4] triazolo[4,3-a]pyridin-5-amine]: the results for the IC50 (on EED (1-441)-His protein; in assay [1]; in assay [2]) were 43.3 nM, 92 nM and 38.8 nM, respectively.

Regarding `COc1cc(F)cc(F)c1CNc1ccc(-c2c(C)noc2C)c2nncn12` [Example 227, N-(2,4-difluoro-6-methoxybenzyl)-8-(3,5-dimethylisoxazol-4-yl)-[1,2,4] triazolo[4,3-a]pyridin-5-amine], the IC50 at EED (1-441)-His protein was 45.5 nM; in assay [1] it was 131 nM; in assay [2] it was 40.2 nM.

As for `COc1cc(F)cc(F)c1CNc1ccc(-c2ccncc2)c2nncn12` [Example 228, N-(2,4-difluoro-6-methoxybenzyl)-8-(pyridin-4-yl)-[1,2,4]triazolo[4,3-a]pyridin-5-amine], the half-maximal inhibitory concentration (IC50) at EED (1-441)-His protein stood at 78.9 nM; in assay [1], 98.6 nM; in assay [2], 43.7 nM.

As to `COc1cccc(F)c1CNc1ccc(-c2ccc(S(C)(=O)=O)cc2C)c2nncn12` [Example 229, N-(2-fluoro-6-methoxybenzyl)-8-(2-methyl-4-(methylsulfonyl)phenyl)-[1,2,4]triazolo[4,3-a]pyridin-5-amine], the half-inhibitory concentration (IC50) on EED (1-441)-His protein was 16.1 nM; in assay [1], 55.9 nM; in assay [2] it was 13.5 nM.

As to `COc1cccc(F)c1CNc1ccc(-c2ccncc2C)c2nncn12` [Example 230, N-(2-fluoro-6-methoxybenzyl)-8-(3-methylpyridin-4-yl)-[1,2,4]triazolo[4,3-a] pyridin-5-amine], the IC50 at EED (1-441)-His protein is 12.9 nM; in assay [1], 27.2 nM; in assay [2], 9.4 nM.

Turning to `COc1cccc(F)c1CNc1ccc(-c2ccc(C(=O)N(C)C)cc2C)c2nncn12` [Example 231, 4-(5-((2-fluoro-6-methoxybenzyl)amino)-[1,2,4]triazolo[4,3-a]pyridin-8-yl)-N,N,3-trimethylbenzamide], the IC50 on EED (1-441)-His protein amounted to 7.7 nM; in assay [1], 29.1 nM; in assay [2], 3.4 nM.

As for `COc1cccc(F)c1CNc1ccc(-c2ccnn2C(C)C)c2nncn12` [Example 232, N-(2-fluoro-6-methoxybenzyl)-8-(1-isopropyl-1H-pyrazol-5-yl)-[1,2,4] triazolo[4,3-a]pyridin-5-amine], the half-maximal inhibitory concentration (IC50) came to 50 nM at EED (1-441)-His protein, 159 nM in assay [1] and 62.2 nM in assay [2].

`CCn1nccc1-c1ccc(NCc2c(F)cccc2OC)n2cnnc12` [Example 233, 8-(1-ethyl-1H-pyrazol-5-yl)-N-(2-fluoro-6-methoxybenzyl)-[1,2,4]triazolo[4,3-a] pyridin-5-amine]: the half-maximal inhibitory concentration (IC50) came out at 14 nM at EED (1-441)-His protein, 47.8 nM in assay [1] and 15.3 nM in assay [2].
